In patent US8513303B2, “Antimicrobial agent” (De Montfort University, priority 2007, dated 2013):

Tests used:
Type in all cases: cell-based
[1] = system: Staphylococcus aureus ATCC 6538; test: Quantitative suspension test, log10 reduction in bacterial numbers; details: 1% w/v H2O2
Source text: Neutralisation (nullification of activity) of antimicrobial agents is required to prevent inhibitory concentrations from being transferred to the recovery medium (as discussed, for example, in Russell A. D. (2004) Factors influencing the efficacy of antimicrobial agents in Principles and Practice of Disinfection Preservation and Sterilization, 4th edition, eds Fraise A. P., Lambert P. A. and Maillard J. Y., pages 98-127, Oxford: Blackwell Publishing Ltd. and Russell A. D., Ahonkhai I. and Rogers, D. T. (1979) A review: microbiological applications of the inactivation of antibiotics and other antimicrobial agents. Journal of Applied Bacteriology, 46, 207-245). Thus, samples were removed at desired time points and then any hydrogen peroxide present in the sample was neutralised (i.e. deactivated) using catalase.
In the examples, catalase from bovine liver was used to neutralise the activity of any remaining hydrogen peroxide (as described in Russell A. D., Ahonkhai I. and Rogers, D. T. (1979), A review: microbiological applications of the inactivation of antibiotics and other antimicrobial agents, Journal of Applied Bacteriology, 46, 207-245) after the appropriate contact time during the experiments. Control experiments were conducted to establish whether the neutraliser nullified the activity of hydrogen peroxide and whether the neutraliser was toxic to the micro-organisms tested.
The effect of acidic pH conditions (pH 3.47 to 3.54) were investigated with and without hydrogen peroxide and air.
A quantitative suspension test (as described in Reybrouck G. (1998), The testing of disinfectants, International Biodeterioration and Biodegradation, 41, 269-272) based on the general principles of European quantitative suspension tests (BS EN1040:2005: Chemical disinfectants and antiseptics, Quantitative suspension test for the evaluation of basic bactericidal activity of chemical disinfectants and antiseptics, Test method and requirements (phase 1), London: British Standards Institute; BS EN 1276:1997: Chemical disinfectants and antiseptics, Quantitative suspension test for the evaluation of bactericidal activity of chemical disinfectants and antiseptics used in food, industrial, domestic, and institutional areas, Test method and requirements (phase 2, step 1). London: British Standards Institute) was used to establish the basic level of activity of the catalyst in the absence of organic matter. All tests were performed independently at least three times unless otherwise stated. Low concentrations (0.2-1% w/v) of hydrogen peroxide were used so that increases in antimicrobial activity could be detected if present.
Bacteria were inoculated into 10 ml volumes of nutrient broth and incubated at 37° C. for 18 to 24 hours at a shaking speed of 100 revolutions/minute. After incubation, the bacteria were washed by centrifugation to remove the nutrient broth; supernatants were discarded and the bacterial pellets were resuspended in sterilised distilled water. 7.5 ml of the washed bacterial suspension was added to 67.5 ml of hydrogen peroxide and/or distilled water to give a specific final concentration (ranging from 0 to 1% w/v—see Tables below) of hydrogen peroxide and approximately 8 log10 colony forming units (CFU)/mL of bacteria. The resultant mixture was stirred magnetically throughout the experiment. Where applicable, 1 g (+/−0.1 g) of either modified PAN fibre (referred to as PAN1 (control) or PAN2 (control)) or catalyst (referred to as PAN1 catalyst or PAN2 catalyst or PAN3 catalyst) comprising PAN fibres was added to the resultant mixture. The experiments were performed with or without air. If air was used, 2.5 L/min was supplied via. a filtered air pump and a sterilised Pyrex gas distribution tube.
After a specific contact time (see Tables below), 1 ml aliquots were removed from the experimental flask and transferred into 9 ml of neutraliser (catalase) for 5 minutes to inactivate any remaining hydrogen peroxide.

[2] = system: Escherichia coli ATCC 10536; test: Antimicrobial activity of PAN catalyst during reuse; details: 0.2% w/v H2O2, no air
Procedure: (§1) PAN catalyst was assessed for antimicrobial activity at first use, 48 hours after first use, 48 hours after second use and six months after first use using the same experimental conditions as described previously (see testing antimicrobial activity section).

[3] = system: Staphylococcus aureus ATCC 6538; test: as above; details: room temperature, 1% w/v H2O2, no air
Procedure: as §1

[4] = system: Pseudomonas aeruginosa ATCC 15442; test: Antimicrobial activity of PAN catalyst under buffered neutral pH conditions at room temperature and 35° C.; details: 0.5% w/v H2O2; for log reduction: 35° C., held at neutral pH; for Mean log10 reduction in CFU/ml: room temperature, buffered at neutral pH
Procedure: Experiments were conducted using the method outlined previously (see testing antimicrobial activity section), but hydrogen peroxide and catalyst were prepared in phosphate buffer solution. Experiments were carried out at room temperature and 35° C.

Compound: OO [Example H2O2, hydrogen peroxide]
- Mean log10 reduction in CFU/ml ([1]; air 2.5 L/min, 10 min): 0.61 log10 CFU/ml
- Mean log10 reduction in CFU/ml ([1]; air 2.5 L/min, 20 min): 1.27 log10 CFU/ml
- Mean log10 reduction in CFU/ml ([1]; air 2.5 L/min, 30 min): 2.57 log10 CFU/ml
- Mean log10 reduction in CFU/ml ([1]; air 2.5 L/min, 40 min): 3.84 log10 CFU/ml
- Mean log10 reduction in CFU/ml ([1]; air 2.5 L/min, 50 min): 5.07 log10 CFU/ml
- Mean log10 reduction in CFU/ml ([1]; air 2.5 L/min, 50 min, listed as hydrogen peroxide): 5 log10 CFU/ml
- Mean log10 reduction in CFU/ml ([1]; air 2.5 L/min, 60 min): 5.40 log10 CFU/ml
- Mean log10 reduction in CFU/ml ([1]; no air, 10 min): 0.70 log10 CFU/ml
- Mean log10 reduction in CFU/ml ([1]; no air, 20 min): 1.43 log10 CFU/ml
- Mean log10 reduction in CFU/ml ([1]; no air, 30 min): 2.88 log10 CFU/ml
- Mean log10 reduction in CFU/ml ([1]; no air, 40 min): 3.89 log10 CFU/ml
- Mean log10 reduction in CFU/ml ([1]; no air, 50 min): 4.97 log10 CFU/ml
- Mean log10 reduction in CFU/ml ([1]; no air, 60 min): 5.37 log10 CFU/ml
- Mean log10 reduction in CFU/ml ([1]; no air, 60 min, listed as hydrogen peroxide): 5 log10 CFU/ml
- Mean log10 reduction in CFU/ml ([1]; acidic pH 3.47 to 3.54, air 2.5 L/min, 10 min): 1.00 log10 CFU/ml
- Mean log10 reduction in CFU/ml ([1]; acidic pH 3.47 to 3.54, air 2.5 L/min, 20 min): 1.86 log10 CFU/ml
- Mean log10 reduction in CFU/ml ([1]; acidic pH 3.47 to 3.54, air 2.5 L/min, 30 min): 2.33 log10 CFU/ml
- Mean log10 reduction in CFU/ml ([1]; acidic pH 3.47 to 3.54, air 2.5 L/min, 40 min): 2.83 log10 CFU/ml
- Mean log10 reduction in CFU/ml ([1]; acidic pH 3.47 to 3.54, air 2.5 L/min, 50 min): 2.23 log10 CFU/ml
- Mean log10 reduction in CFU/ml ([1]; acidic pH 3.47 to 3.54, air 2.5 L/min, 60 min): 3.45 log10 CFU/ml
- Mean log10 reduction in CFU/ml ([1]; acidic pH 3.47 to 3.54, no air, 10 min): 0.69 log10 CFU/ml
- Mean log10 reduction in CFU/ml ([1]; acidic pH 3.47 to 3.54, no air, 20 min): 0.72 log10 CFU/ml
- Mean log10 reduction in CFU/ml ([1]; acidic pH 3.47 to 3.54, no air, 30 min): 1.30 log10 CFU/ml
- Mean log10 reduction in CFU/ml ([1]; acidic pH 3.47 to 3.54, no air, 40 min): 2.03 log10 CFU/ml
- Mean log10 reduction in CFU/ml ([1]; acidic pH 3.47 to 3.54, no air, 50 min): 2.90 log10 CFU/ml
- Mean log10 reduction in CFU/ml ([1]; acidic pH 3.47 to 3.54, no air, 60 min): 3.23 log10 CFU/ml
- Mean log10 reduction in CFU/ml ([1]; room temperature, no air, no catalyst, 10 min): 0.43 log10 CFU/ml
- Mean log10 reduction in CFU/ml ([1]; room temperature, no air, no catalyst, 20 min): 1.21 log10 CFU/ml
- Mean log10 reduction in CFU/ml ([1]; room temperature, no air, no catalyst, 30 min): 2.25 log10 CFU/ml
- Mean log10 reduction in CFU/ml ([1]; room temperature, no air, no catalyst, 40 min): 3.92 log10 CFU/ml
- Mean log10 reduction in CFU/ml ([1]; room temperature, no air, no catalyst, 50 min): 4.57 log10 CFU/ml
- Mean log10 reduction in CFU/ml ([1]; room temperature, no air, no catalyst, 60 min): 5.10 log10 CFU/ml
- Mean log10 reduction in CFU/ml ([2]; 35° C., 10 min): 2.46 log10 CFU/ml
- Mean log10 reduction in CFU/ml ([2]; 35° C., 20 min): 3.77 log10 CFU/ml
- Mean log10 reduction in CFU/ml ([2]; 35° C., 30 min): ≧5.30 log10 CFU/ml
- Mean log10 reduction in CFU/ml ([2]; 35° C., 30 min, listed as hydrogen peroxide): greater than or equal to 5.30 log10 CFU/ml
- Mean log10 reduction in CFU/ml ([2]; 35° C., 40 min): >5.50 log10 CFU/ml
- Mean log10 reduction in CFU/ml ([2]; 35° C., 50 min): >5.50 log10 CFU/ml
- Mean log10 reduction in CFU/ml ([2]; 35° C., 60 min): >5.50 log10 CFU/ml
- Mean log10 reduction in CFU/ml ([2]; room temperature, 10 min): 1.01 log10 CFU/ml
- Mean log10 reduction in CFU/ml ([2]; room temperature, 20 min): 2.08 log10 CFU/ml
- Mean log10 reduction in CFU/ml ([2]; room temperature, 30 min): 3.28 log10 CFU/ml
- Mean log10 reduction in CFU/ml ([2]; room temperature, 40 min): 4.00 log10 CFU/ml
- Mean log10 reduction in CFU/ml ([2]; room temperature, 50 min): 5.17 log10 CFU/ml
- Mean log10 reduction in CFU/ml ([2]; room temperature, 60 min): >5.50 log10 CFU/ml
- Mean log10 reduction in CFU/ml ([3]; 10 min): 0.54 log10 CFU/ml
- Mean log10 reduction in CFU/ml ([3]; 20 min): 1.18 log10 CFU/ml
- Mean log10 reduction in CFU/ml ([3]; 30 min): 2.68 log10 CFU/ml
- Mean log10 reduction in CFU/ml ([3]; 40 min): 3.56 log10 CFU/ml
- Mean log10 reduction in CFU/ml ([3]; 50 min): 4.62 log10 CFU/ml
- Mean log10 reduction in CFU/ml ([3]; 60 min): 5.08 log10 CFU/ml
- log reduction ([4]; air, 20 min): 3.13 log
- log reduction ([4]; air, 40 min): 3.41 log
- log reduction ([4]; no air, 50 min): 3.90 log
- Mean log10 reduction in CFU/ml ([4]; air 2.5 L/min, 10 min): 1.37 log10 CFU/ml
- Mean log10 reduction in CFU/ml ([4]; air 2.5 L/min, 20 min): 1.46 log10 CFU/ml
- Mean log10 reduction in CFU/ml ([4]; air 2.5 L/min, 30 min): 1.71 log10 CFU/ml
- Mean log10 reduction in CFU/ml ([4]; air 2.5 L/min, 40 min): 1.61 log10 CFU/ml
- Mean log10 reduction in CFU/ml ([4]; air 2.5 L/min, 50 min): 1.75 log10 CFU/ml
- Mean log10 reduction in CFU/ml ([4]; air 2.5 L/min, 60 min): 1.90 log10 CFU/ml
- Mean log10 reduction in CFU/ml ([4]; no air, 10 min): 1.08 log10 CFU/ml
- Mean log10 reduction in CFU/ml ([4]; no air, 20 min): 1.49 log10 CFU/ml
- Mean log10 reduction in CFU/ml ([4]; no air, 30 min): 1.69 log10 CFU/ml
- Mean log10 reduction in CFU/ml ([4]; no air, 40 min): 1.79 log10 CFU/ml
- Mean log10 reduction in CFU/ml ([4]; no air, 50 min): 1.92 log10 CFU/ml
- Mean log10 reduction in CFU/ml ([4]; no air, 60 min): 1.85 log10 CFU/ml
